Publication PMC6061857 (2018)

Legend:
[1] = system: ATP-30 (DNA, aptamer) CGCACCTGGGGGAGTATTGCGGAGGAAGGT; test: ITC, two-site sequential binding; conditions: 10 mM Mg2+; 10 mM Tris, pH 7.4, 23 °C; site 1 of 2 (KD2 10.1 ± 0.3 μM)
[2] = system: ATP-33 (DNA, aptamer) CGCACCTGGGGGAGTATTGCGGAGGAAGGTGCG; test: ITC, two-site sequential binding; conditions: 10 mM Mg2+; 10 mM Tris, pH 7.4, 23 °C; site 1 of 2 (KD2 12.3 ± 0.6 μM)
[3] = system: 38-GT (DNA, aptamer) GGGAGACAAGGAAAATCCTTCAATGAAGTGGGTCTCCC; test: ITC; conditions: 10 mM Tris, pH 7.4, 23 °C
[4] = system: 35-GT (DNA, aptamer) GGGAGACAAGGAAAATCCTTCAATGAAGTGGGTCT; test: ITC; conditions: 10 mM Tris, pH 7.4, 23 °C

KD1 [1] [µM]	KD1 [2] [µM]	KD [3] [µM]	KD [4] [µM]	Structure (SMILES)
0.8 ± 0.1	0.6 ± 0.1	–	–	Nc1ncnc2c1ncn2[C@@H]1O[C@H](COP(=O)(O)OP(=O)(O)OP(=O)(O)O)[C@@H](O)[C@H]1O
–	–	1.6 ± 0.2	12 ± 1.0	COC(=O)[C@H]1[C@@H](OC(=O)c2ccccc2)C[C@@H]2CC[C@H]1N2C
